Source: US11578055B2, “Triazacyclododecansulfonamide (“TCD”)-based protein secretion inhibitors” (KEZAR LIFE SCIENCES, priority 2018, dated 2023)

Legend:
[1] = test system: PD1 signal sequence plus 10 amino acids fused to Gaussia Luciferase (PD1-ss+10aa/Gaussia Luciferase); assay: Dox Induced PD1-ss-Gluc Assay; format: cell-based; conditions: 24 hr, 293FRT/TO; read-out: 24 hr Dox Inducible PD1ssGluc 293FRT/TO: Mean IC50
Summary of the method: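 Stable Flp-In 293 T-REx line expressing the fusion under tetracycline-inducible control, plated the day before assay. Compound dilutions added with doxycycline and incubated at 37 °C, 5% CO2; unspecified stereocentres mean data refer to stereoisomer mixtures.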

[2] = test system: full length PD1 (amino acids 1-288) fused to Firefly Luciferase; assay: Dox Induced PD1-FL-Gluc Assay; format: cell-based; conditions: 24 hr, 293FRT/TO; read-out: 24 hr Dox Inducible PD1FLFluc 293FRT/TO: Mean IC50
Text: FIp-In 293 T-REx™ cells were transfected with pcDNA™5/FRT/TO plasmid inserted with cDNA encoding Firefly Luciferase fused to the 3′ end of cDNA encoding full length PD1 (amino acids 1-288). Transfected cells were selected for resistance to the selectable markers Hygromycin and Blasticidin to create a stable cell line that contained the PD1-FL/Firefly Luciferase cDNA insert whose expression was regulated under the T-REx™ system. The day before assay, cells were trypsinized and plated in 384-well tissue culture plates. The next day, compound dilutions in DMSO/media containing doxycycline were added to the wells and incubated at 37° C., 5% CO2.
For chemical structures that include one or more stereoisomers, but are illustrated without indicating stereochemistry, the assay data refers to a mixture of stereoisomers.

[3] = test system: full length TNFα (amino acids 1-233) fused to Gaussia Luciferase; assay: Dox Induced TNFα-FL-Gluc Assay; format: cell-based; conditions: 24 hr, 293FRT/TO; read-out: 24 hr Dox Inducible TNFaFLGluc 293FRT/TO: Mean IC50
Summary of the method: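 Stable Flp-In 293 T-REx line expressing doxycycline-inducible full-length TNFα fused to Gaussia luciferase; cells plated the day before, then treated with compound dilutions in doxycycline-containing medium at 37° C, 5% CO2. Unspecified stereocentres mean stereoisomer mixtures were tested.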

[4] = test system: full length IL-2 (amino acids 1-153) fused to Gaussia Luciferase; assay: Dox Induced IL2-FL-Gluc Assay; format: cell-based; conditions: 24 hr, 293FRT/TO; read-out: 24 hr Dox Inducible IL2FLGluc 293FRT/TO: Mean IC50
Summary of the method: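 Flp-In 293 T-REx stable line expressing full-length IL-2 (aa 1-153) with C-terminal Gaussia luciferase fusion under doxycycline-inducible control. Cells plated the day before; compound dilutions added in DMSO/media containing doxycycline, incubated at 37° C, 5% CO2.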

[5] = test system: multiple myeloma cell line NCl-H929; assay: H929 Cell Viability Assay; format: cell-based, human; conditions: Homo sapiens, NCI-H929, 48 h, H929, read-out: 48 hr H929 Viability Celltiter-Glo: Mean EC50
Summary of the method: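 NCI-H929 myeloma cells in RPMI 1640 with 10% FBS were treated with compound dilutions for 48 h at 37 °C, and viability was then read by CellTiter-Glo luminescence. Compounds drawn without stereochemistry were tested as stereoisomer mixtures.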

[6] = test system: multiple myeloma cell line U266B1; assay: U266 Cell Viability Assay; format: cell-based, human; conditions: Homo sapiens, U-266; 48 hr, U266; read-out: 48 hr U266 Viability Celltiter-Glo: Mean EC50
Summary of the method: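 U266B1 myeloma cells in RPMI 1640 with 10% FBS were treated with compound dilutions for 48 h at 37° C, 5% CO2. Viability was read as CellTiter-Glo luminescence. Data for structures drawn without stereochemistry refer to stereoisomer mixtures.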

[7] = In Vitro Microsome Stability Assay (human); format: in vitro ADME; conditions: human, 30 min, NADPH
Summary of the method: (§1)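 Test article, added from a 0.25 mM DMSO stock, was incubated with liver microsomes (20 mg/mL stock) in 0.1 M potassium phosphate at 37° C, with the reaction started by NADPH. Samples were quenched with acetonitrile containing internal standard at 0 and 30 min and analysed by LC-MS/MS. Values are % remaining at 30 min versus 0 min, using IS-normalised AUC ratios.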

[8] = In Vitro Microsome Stability Assay (mouse); format: in vitro ADME; conditions: mouse, 30 min, NADPH
Summary of the method: as §1

[9] = In Vitro Microsome Stability Assay (rat); format: in vitro ADME; conditions: rat, 30 min, NADPH
Summary of the method: as §1

[10] = In Vitro Microsome Stability Assay (monkey); format: in vitro ADME; conditions: monkey, 30 min, NADPH
Summary of the method: as §1

SMILES	IC50 [1]	IC50 [2]	IC50 [3]	IC50 [4]	EC50 [5]	EC50 [6]	Liver Microsome Stability-% Left after 30 min w/ NADPH (%) Human [7]	Liver Microsome Stability-% Left after 30 min w/ NADPH (%) Mouse [8]	Liver Microsome Stability-% Left after 30 min w/ NADPH (%) Rat [9]	Liver Microsome Stability-% Left after 30 min w/ NADPH (%) Monkey [10]
CC1CCN(S(=O)(=O)N2CCCN(CC3CCCCC3)CCCN(S(=O)(=O)c3ccc(N(C)C)cc3)CC3(CC3)C2)CC1 [A22, 4-{[9-(cyclohexylmethyl)-13-[(4-methylpiperidin-1-yl)sulfonyl]-5,9,13-triazaspiro[2.11]tetradecan-5-yl]sulfonyl}-N,N-dimethylaniline]	156 nM	404 nM	6380 nM	370 nM	6670 nM	> 25000 nM	0.16%	0.12%	0.4%	0.11%
CN(C)c1ccc(S(=O)(=O)N2CCCN(CC3CCCCC3)CCCN(S(=O)(=O)N3CCC(c4ccccc4)CC3)CC3(CC3)C2)cc1 [A29, 4-{[9-(cyclohexylmethyl)-13-[(4-phenylpiperidin-1-yl)sulfonyl]-5,9,13-triazaspiro[2.11]tetradecan-5-yl]sulfonyl}-N,N-dimethylaniline]	241 nM	591 nM	> 25000 nM	447 nM	> 25000 nM	> 25000 nM	39.6%	32.4%	43.3%	19.5%
C=C1CN(S(=O)(=O)c2ccc(N(C)C)cc2)CCCN(CC2CCCCC2)CCCN(S(=O)(=O)N2CCN(c3ccccc3)CC2)C1 [A36, 4-{[9-(cyclohexylmethyl)-3-methylidene-5-[(4-phenylpiperazin-1-yl)sulfonyl]-1,5,9-triazacyclododecan-1-yl]sulfonyl}-N,N-dimethylaniline]	118 nM	319 nM	> 21800 nM	301 nM	> 15400 nM	> 25000 nM	6.69%	1.85%	0.94%	1.54%
C=C1CN(S(=O)(=O)c2ccc(N(C)C)cc2)CCCN(CC2CCCCC2)CCCN(S(=O)(=O)N2CCC[C@@H](c3ccccc3)C2)C1 [A43, 4-{[9-(cyclohexylmethyl)-3-methylidene-5-{[(3S)-3-phenylpiperidin-1-y]sulfonyl}-1,5,9-triazacyclododecan-1-yl]sulfonyl}-N,N-dimethylaniline]	46.9 nM	161 nM	1210 nM	133 nM	2970 nM	> 25000 nM	15.4%	20.1%	22.3%	12%
C=C1CN(S(=O)(=O)c2ccc(N(C)C)cc2)CCCN(CC2CCCCC2)CCCN(S(=O)(=O)N2CCc3ccccc3C2)C1 [A50, 4-{[9-(cyclohexylmethyl)-3-methylidene-5-(1,2,3,4-tetrahydroisoquinoline-2-sulfonyl)-1,5,9-triazacyclododecan-1-yl]sulfonyl}-N,N-dimethylaniline]	22.2 nM	74.1 nM	661 nM	57 nM	1010 nM	6540 nM	1.32%	70.1%	3.6%	0.79%
C=C1CN(S(=O)(=O)c2ccc(N(C)C)cc2)CCCN(CC2CCCCC2)CCCN(S(=O)(=O)N2CC=C(c3ccc(Cl)cc3)CC2)C1 [A74, 4-[(5-{[4-(4-chlorophenyl)-1,2,3,6-tetrahydropyridin-1-yl]sulfonyl}-9-(cyclohexylmethyl)-3-methylidene-1,5,9-triazacyclododecan-1-yl)sulfonyl]-N,N-dimethylaniline]	77.4 nM	258 nM	> 25000 nM	248 nM	> 25000 nM	> 25000 nM	56.3%	53.7%	55.7%	60.6%
CN(C)c1ccc(S(=O)(=O)N2CCCN(CC3CCCCC3)CCCN(S(=O)(=O)N3CCC(c4ccccc4)CC3)C/C(=N/O)C2)cc1 [A75, 9-(cyclohexylmethyl)-1-((4-(dimethylamino)phenyl)sulfonyl)-5-((4-phenylpiperidin-1-yl)sulfonyl)-1,5,9-triazacyclododecan-3-one oxime]	104 nM	256 nM	3780 nM	233 nM	3030 nM	> 25000 nM	3.08%	2.75%	7.54%	0.28%
C[C@@H]1CN(S(=O)(=O)c2ccc(N(C)C)cc2)CCCN(CC2CCCCC2)CCCN(S(=O)(=O)N2CCC(c3ccccc3)CC2)C1 [A76, 4-{[(3 R)-9-(cyclohexylmethyl)-3-methyl-5-[(4-phenylpiperidin-1-yl)sulfonyl]-1,5,9-triazacyclododecan-1-yl]sulfonyl}-N,N-dimethylaniline]	> 25000 nM	> 25000 nM	> 25000 nM	> 25000 nM	> 25000 nM	> 25000 nM	53.1%	28.6%	33.9%	35.7%
C[C@H]1CN(S(=O)(=O)c2ccc(N(C)C)cc2)CCCN(CC2CCCCC2)CCCN(S(=O)(=O)N2CCC(c3ccccc3)CC2)C1 [A77, 4-{[(3S)-9-(cyclohexylmethyl)-3-methyl-5-[(4-phenylpiperidin-1-yl)sulfonyl]-1,5,9-triazacyclododecan-1-yl]sulfonyl}-N,N-dimethylaniline]	95 nM	338 nM	5540 nM	360 nM	4010 nM	> 25000 nM	30.1%	37.3%	32.5%	20.8%
